Counter-ions that a name gives are not always drawn.
Key:
[1] = system: ketamine-induced working memory deficits; assay: Ketamine-disrupted radial arm maze (RAM); format: in vivo, rat; conditions: ketamine 10 mg/kg s.c.
From the text: Two cohorts of adult male Long-Evans rats (N=30 each) were trained in a spatial working memory task on an eight-arm RAM, (Pathfinder Maze System, Lafayette Instrument Co., Lafayette, IN), using a procedure adapted from [Ward et al. (1990)] and described in detail in [Strick et al. (2011)]. Briefly, rats were food-restricted to provide motivation to perform the RAM task. The task requires that the animals enter each arm to retrieve a reinforcement food pellets, using spatial cues in the room to remember which arms of the maze they have previously entered. Rats were individually placed on the maze and allowed to navigate until all eight arms were entered and the pellets were consumed or until 30 choices were made, or until 5 min had elapsed. Entry into an arm previously entered was counted as an error. […] Training continued until all animals had reached the training criterion, defined as two or fewer errors on two consecutive days. […] Performance on the maze was evaluated 30 min later by an observer that was blinded to treatments.
The R 3.0.1 statistical software was used to compare the error rate data. The effects of treatment and the interaction on the error rate were assessed using a one-way mixed model ANOVA using generalized least squares method from lme4 library. […]

[2] = system: ketamine-induced working memory deficits; assay: Spatial delayed response (SDR) task in the nonhuman primate; format: in vivo, rhesus monkeys; conditions: ketamine 0.7-1.7 mg/kg i.m.; baseline 70.63 ± 1.75%
From the text: This study was designed to test the hypothesis that PF-6142 would provide significant protection versus the ketamine-induced working memory deficits in nonhuman primates.
Rhesus monkeys were trained to stability on a variable SDR task in a sound-attenuated Wisconsin General Testing Apparatus ([Roberts et al., 2010]). Briefly, subjects observe while the investigator baiting one of two to seven wells with a highly preferred food reward and then covers all the wells with identical square plaques. An opaque screen is then lowered for one of five variable delays, which are pseudorandomized across trials within a session. Thus, delays are defined as 0–4 N, where “N” is a value that is animal dependent and ranges from 1 to 10 s depending upon the difficulty level of the task at which an animal reaches the criterion of stable performance. At the end of the delay period, the opaque screen is raised, and the animal must select the well that had been baited to obtain a reward. Each test session consists of 20 trials wherein both the baited well and delay length are pseudorandomized across trials. Before study initiation, all subjects were required to reach stability over a period of 10 consecutive test sessions, where stability was defined as an average of 65–75% correct. Stability was attained by varying the number of wells and the delay value for each animal. Subjects were originally trained on a two-well board with an N value of 1. […] Once stability was attained for a given number of wells and N value, that combination was kept constant throughout the course of the study ([Roberts et al., 2010]). The range of stable performance for the 10 subjects was two to five wells and an N value of 1–7 s (median, four-well testing board, N = 5 s). Data were transformed using logarithmic function [log(x+5)] to improve normality and analyzed using ANOVA.
Subjects received pretreatment with vehicle (sterile saline solution) or PF-6142 (0.0015, 0.015, 0.15 mg/kg, s.c.) 4 h before cognitive testing. They then received an intramuscular injection of either vehicle (sterile saline) or ketamine (0.7–1.7 mg/kg; Fort Dodge Co.) 0.25 h before cognitive testing. […] Thus, for the present study, one monkey received 0.7 mg/kg, seven monkeys received 1.0 mg/kg, and two monkeys received 1.7 mg/kg of ketamine. The vehicle/PF-6142 and vehicle/ketamine treatments were assigned using a randomized Latin square design with a total of eight conditions. Except for the vehicle/vehicle condition, there was a minimum 2-week washout period between all acute challenges during which time animals were required to “restabilize” to baseline performance levels, which was defined as at least three consecutive testing sessions wherein cognitive performance ranged between 65% and 75% correct.

SMILES: CNC1(c2ccccc2Cl)CCCCC1=O (centres unmarked) [ketamine, ketamine hydrochloride, reference compound]
- error rate (errors/choices) in RAM [1]: robust increase in error rate
- percent correct on the SDR task [2]: 28.75 ± 2.45%

Source: PMC7358525, “Characterization of PF-6142, a Novel, Non-Catecholamine Dopamine Receptor D1 Agonist, in Murine and Nonhuman Primate Models of Dopaminergic Activation” (Frontiers in Pharmacology, 2020)
